What was measured:
[1] = tested on: rats' motor performance and coordination; experiment: Rotarod test; settings: buspirone 0.1-30 mg/kg i.p., pentobarbital 15 mg/kg i.p., 5 or 30 min before test; compared to vehicle
[2] = tested on: locomotor activity; experiment: Open field test; settings: buspirone 0.1-30 mg/kg i.p., pentobarbital 15 mg/kg i.p.; 60 minutes observation period; compared to vehicle
[3] = tested on: unilaterally 6-OHDA-lesioned rats; experiment: L-DOPA induced AIMs test in the 6-OHDA rat model; assay type: in vivo; settings: previously shown by the applicant
[4] = tested on: Parkinson's disease; settings: cited from earlier work
[5] = tested on: LID; settings: cited from earlier work

CCCC(C)C1(CC)C(=O)NC(=O)NC1=O (stereo not shown) [Pentobarbital]
Rotarod performance (time spent on the accelerating rod) [1]: significantly reduces time spent on the rotarod
Open field performance (locomotor activity) [2]: significantly reduced motor performance

O=C1CC2(CCCC2)CC(=O)N1CCCCN1CCN(c2ncccn2)CC1 [buspirone, 8-[4-(4-pyrimidin-2-ylpiperazin-1-yl)butyl]-8-azaspiro[4.5]decane-7,9-dione]
L-DOPA-induced involuntary movements [3]: dose dependently reduce L-DOPA-induced involuntary movements
disability ratings ([4]; 100 mg/day): significant worsening of disability ratings
dyskinesia ([4]; 100 mg/day): reduced dyskinesia
effects on Parkinson's disease or dyskinesia ([4]; 10-60 mg/day): did not have any effects on Parkinson's disease or dyskinesia
Rotarod performance (time spent on the accelerating rod) [1]: affect performance in the rotarod model in a dose dependent manner
Open field performance (locomotor activity) [2]: dose dependently is able to affect performance in the open field test

Fc1ccc(-c2cncc(CNC[C@H]3CCc4ccccc4O3)c2)cc1 [sarizotan, 1-[(2R)-3,4-dihydro-2H-chromen-2-yl]-N-([5-(4-fluorophenyl)pyridin-3-yl]methyl)methanamine]
effects compared to placebo ([5]; phase 2b and 3 studies): no significant effects
LID ([5]; pre-clinical and clinical studies): reduced LID

— patent US20220062279A1, “TREATMENT OF MOVEMENT DISORDERS” (Contera Pharma A/S, priority 2018, published 2022)
